Three molecules from publication PMC8955307, “Nucleobase-Derived Nitrones: Synthesis and Antioxidant and Neuroprotective Activities in an In Vitro Model of Ischemia–Reperfusion” (International Journal of Molecular Sciences, 2022) can be followed below.

System in the first series: not listed separately
The experiment in a line: ABTS radical cation decolorization assay. To be noted: tested at 100 µM. The protocol:
Approximately 10 µL of the tested compounds in DMSO (100 µM final concentration) were mixed with 200 µL of ABTS∙^+ (100 mM) and 790 µL absolute ethanol. The absorbance value was recorded 1 min after mixing at 734 nm and compared to Trolox.
Regarding `Cn1c(=O)c2ncn(C/C=[N+](/C)[O-])c2n(C)c1=O` [9g], the “ABTS+ (%)” value is 8%.

`C/[N+]([O-])=C/Cn1ccc(=O)n(C/C=[N+](/C)[O-])c1=O` [9h]: the “ABTS+ (%)” value is listed as 50%.

In the case of `C/[N+]([O-])=C/Cn1cc(F)c(=O)[nH]c1=O` [9c], the “ABTS+ (%)” value is 5%.

System in a further series: not given
Assay: not given
Conditions: not given
On to `Cn1c(=O)c2ncn(C/C=[N+](/C)[O-])c2n(C)c1=O` [9g], for which the melting point is 192 °C (dec.).

Turning to `C/[N+]([O-])=C/Cn1cc(F)c(=O)[nH]c1=O` [9c], the melting point is 195 °C (dec.).

System in the next series: not listed separately
The experiment in a line: Hydroxyl radical scavenging (competition with DMSO). Particulars: tested at 100 µM. The protocol: The competition of the tested nitrones (100 µM) with DMSO (33 mM) in the phosphate buffer (50 mM), pH 7.4, was used. The hydroxyl radicals were generated by the Fe^3+/ascorbic acid system (EDTA 0.1 mM, Fe^3+ 167 µM, ascorbic acid 10 mM), and the samples were incubated at 37 °C/30 min. A 17% w/v solution of CCl3CO2H was used to stop the radical propagation. The percentage scavenging activity was compared to Trolox used as a reference.
With `Cn1c(=O)c2ncn(C/C=[N+](/C)[O-])c2n(C)c1=O` [9g], the “OH (%) scavenging” value was 49%.

Turning to `C/[N+]([O-])=C/Cn1ccc(=O)n(C/C=[N+](/C)[O-])c1=O` [9h], the “OH (%) scavenging” value stood at 25%.

Regarding `C/[N+]([O-])=C/Cn1cc(F)c(=O)[nH]c1=O` [9c], the “OH (%) scavenging” value turned out to be 99%.

A further series relates to human neuroblastoma SH-SY5Y cells. The series can be described thus: Superoxide radical production (DHE fluorescence) after OGD and 3 h OGR (IR). The format is cell-based. To be noted: Homo sapiens, OGD + 3 h OGR (IR), compounds 0.1 to 1000 μM, read-out: Antioxidant Activity EC50 ± SEM (superoxide production). How it is done:
A density of 2–2.5 × 10^5 SHSY5Y cells/well was used to seed in 48-well plates to quantify superioxide anion formation. Firstly, cultured cells were exposed to OGD treatment for 3–4 h or maintained in normoxic conditions (controls). Thereafter, medium was replaced with oxygenated Dulbecco’s: Ham’s F12 medium with glucose, 1% Antibiotic-Antimycotic, 1% Gentamicin and 10% FCS. Cells were incubated in the absence (controls) or presence of indicated concentrations of the compounds of study, at 37 °C for 3 h. […] For every condition, the linear regression of fluorescence data (expressed in arbitrary fluorescence units, AFU) was calculated, and the slopes (a) of the best fitting lines (y = ax) were considered as an index of superoxide production, as described previously.
With `Cn1c(=O)c2ncn(C/C=[N+](/C)[O-])c2n(C)c1=O` [9g], the 50% effective concentration (EC50) worked out at 0.28 ± 0.03 µM.

`C/[N+]([O-])=C/Cn1ccc(=O)n(C/C=[N+](/C)[O-])c1=O` [9h]: the EC50 was 0.32 ± 0.06 µM.

As for `C/[N+]([O-])=C/Cn1cc(F)c(=O)[nH]c1=O` [9c], the concentration for a half-maximal effect (EC50) turned out to be 3.69 ± 0.7 µM.

Staying with this series, now noted: Homo sapiens, OGD + 3 h OGR (IR), read-out: Maximal Activity mean±SEM (antioxidant).
For `Cn1c(=O)c2ncn(C/C=[N+](/C)[O-])c2n(C)c1=O` [9g], the Emax was determined as 83 ± 1.37%.

With `C/[N+]([O-])=C/Cn1ccc(=O)n(C/C=[N+](/C)[O-])c1=O` [9h], the Emax is 127 ± 3.12%.

For the molecule `C/[N+]([O-])=C/Cn1cc(F)c(=O)[nH]c1=O` [9c], the Emax came out at 96.1 ± 3.03%.

System in another series: not listed separately
The series can be described thus: Inhibition of lipid peroxidation (ILPO), AAPH protocol with sodium linoleate. Particulars: tested at 100 µM. The protocol:
The reactants consisting of 10 µL (16 mM) sodium linoleate, 10 µL of the tested nitrones in DMSO (final concentration 100 µM), 50 µL of AAPH ([…]) as a free radical initiator, 930 µL phosphate buffer pH 7.4 (0.05 M) at 37 °C under air, were mixed and the reaction’s result (as absorbance value) was recorded at 234 nm in comparison to PBN as a reference.
With `C/[N+]([O-])=C/Cn1ccc(=O)n(C/C=[N+](/C)[O-])c1=O` [9h], the “ILPO (%)” value is “inactive and No”.

For the molecule `C/[N+]([O-])=C/Cn1cc(F)c(=O)[nH]c1=O` [9c], the “ILPO (%)” value is 59%.

System in the next series: not listed separately
The experiment in a line: Reducing ability: interaction with DPPH. To be noted: tested at 100 µM. For orientation: Loss of DPPH colour is used to gauge radical scavenging.
For `Cn1c(=O)c2ncn(C/C=[N+](/C)[O-])c2n(C)c1=O` [9g], the “DPPH (%)” value was 15%.

As to `C/[N+]([O-])=C/Cn1ccc(=O)n(C/C=[N+](/C)[O-])c1=O` [9h], the “DPPH (%)” value was determined as 82%.

Turning to `C/[N+]([O-])=C/Cn1cc(F)c(=O)[nH]c1=O` [9c], the “DPPH (%)” value came out at 18%.

A further series relates to SH-SY5Y human neuroblastoma cells. The series can be described thus: Neuroprotection: cell viability (XTT metabolic activity) after OGD (4 h) followed by OGR (24 h) (IR). Format: cell-based. To be noted: Homo sapiens, 24 h, OGD 4 h + OGR 24 h (IR), read-out: Maximal Activity mean±SEM (neuroprotection). How it is done: Cultures of human neuroblastoma cells from line SH-SY5Y were performed in flasks containing Dulbecco’s: Ham’s F12, 1:1 [v/v] composed of 0.5 mM sodium pyruvate, 2.5 mM GlutaMAX™; GIBCO, Life Technologies, Madrid (Spain), 3.15 mg/mL glucose, 1% Antibiotic-Antimycotic (100 ui/mL penicillin, […] streptomycin, and 0.25 mg amphotericin B), 1% Gentamicin 15 mg/mL (Sigma-Aldrich, Madrid, Spain) and 10% Fetal Calf Serum (FCS) (Gibco; Life Technologies, Madrid, Spain) as as described. For each experiment, neuroblastoma cells were digested partially with 0.25% trypsin-EDTA and seeded in plates of 96 or 48 wells with a density of 0.5–1 or 2–2.5 × 10^5 cells/well, respectively, depending on the assay. At 80% confluence of the seeded cells, medium was renewed adding 0.1–1000 µM of the compounds tested.
(§1) To induce experimental ischemia, and the sub-consequent cellular damage, the neuroblastoma cultures underwent OGD for 3–4 h, maintained in a glucose-free Dulbecco’s medium inside an anaerobic chamber in the presence of a gas mixture of 95% N2/5% CO2 and humidified at 37 °C at a constant pressure of 0.15 bar. After the OGD period (4 h), medium was substituted by oxygenated 10% FCS-containing medium, and cells were incubated in conditions of normoxia for 24 h to recovery (R24h). The compounds used in the neuroprotection studies: nitrones 9a–i, α-phenyl-N-tert-butyl nitrone (PBN) and N-acetyl-L-cysteine (NAC) (0.01 μM−1000 µM), were added at the beginning of R24h as described. Concurrently, controls in the absence of the OGD procedure were performed by maintaining these cells with Dulbecco’s medium including glucose for 3–4 h in an incubator in conditions of normoxia during the OGD period; thereafter, the medium was changed, and the cells (in the presence or absence of the different study compounds) were returned to the incubator for 24 h of recovery, as described. In addition, experiments including the same amounts of vehicle (final concentration < 1% dimethyl sulfoxide) were performed, serving as controls. The effects of nitrones 9a–g were analyzed three-five times independently using different culture batches, and each experiment was carried out in triplicate.
Cell viability measurements were carried out in human neuroblastoma cells SHSY5Y using 96-well culture plates, containing about 0.5–1 × 10^5 cells/well, after the OGD-R24h or control treatment including 0.01–1000 µM of the different testing compounds (nitrones 9a–g, PBN, and NAC), utilizing the Cell Proliferation Kit II (XTT), Sigma Aldrich, Madrid, Spain, which determines the culture’s metabolic capacity, as described in [21, 22]. XTT solution (0.3 mg/mL final concentration) was added to the seeded cells, incubated for 2 h at 37 °C with 5% CO2 and 95% air (v/v), and a spectrophotometer reader (Biotek Power-Wave XS microplate-reader (BioTek Instruments, Madrid, Spain) was used to register the absorbance at 450 nm (reference 650 nm) of the soluble formazan product generated. 100% viability was set by control normoxic cells treated with medium only, and control cells were added 0.001–1% DMSO in every assay.
A general note: Tetrazolium assays rely on reduction of a dye to a coloured formazan, in cell work by metabolically active cells.
Consider `Cn1c(=O)c2ncn(C/C=[N+](/C)[O-])c2n(C)c1=O` [9g], for which the Emax was 105 ± 3.19%.

Turning to `C/[N+]([O-])=C/Cn1ccc(=O)n(C/C=[N+](/C)[O-])c1=O` [9h], the Emax stood at 115 ± 6.92%.

Still in this series, the particulars now being: Homo sapiens, OGD 4 h + OGR 24 h (IR), compounds 0.01 μM to 1 mM, read-out: Neuroprotection EC50 ± SEM.
In the case of `C/[N+]([O-])=C/Cn1ccc(=O)n(C/C=[N+](/C)[O-])c1=O` [9h], the 50% effective concentration (EC50) was found to be 6.15 ± 0.33 µM.

A further series has as its target T1, Soybean Lipoxygenase (SLOX) (Glycine max, UniProt P08170).
T1 sequence (P08170 1-839): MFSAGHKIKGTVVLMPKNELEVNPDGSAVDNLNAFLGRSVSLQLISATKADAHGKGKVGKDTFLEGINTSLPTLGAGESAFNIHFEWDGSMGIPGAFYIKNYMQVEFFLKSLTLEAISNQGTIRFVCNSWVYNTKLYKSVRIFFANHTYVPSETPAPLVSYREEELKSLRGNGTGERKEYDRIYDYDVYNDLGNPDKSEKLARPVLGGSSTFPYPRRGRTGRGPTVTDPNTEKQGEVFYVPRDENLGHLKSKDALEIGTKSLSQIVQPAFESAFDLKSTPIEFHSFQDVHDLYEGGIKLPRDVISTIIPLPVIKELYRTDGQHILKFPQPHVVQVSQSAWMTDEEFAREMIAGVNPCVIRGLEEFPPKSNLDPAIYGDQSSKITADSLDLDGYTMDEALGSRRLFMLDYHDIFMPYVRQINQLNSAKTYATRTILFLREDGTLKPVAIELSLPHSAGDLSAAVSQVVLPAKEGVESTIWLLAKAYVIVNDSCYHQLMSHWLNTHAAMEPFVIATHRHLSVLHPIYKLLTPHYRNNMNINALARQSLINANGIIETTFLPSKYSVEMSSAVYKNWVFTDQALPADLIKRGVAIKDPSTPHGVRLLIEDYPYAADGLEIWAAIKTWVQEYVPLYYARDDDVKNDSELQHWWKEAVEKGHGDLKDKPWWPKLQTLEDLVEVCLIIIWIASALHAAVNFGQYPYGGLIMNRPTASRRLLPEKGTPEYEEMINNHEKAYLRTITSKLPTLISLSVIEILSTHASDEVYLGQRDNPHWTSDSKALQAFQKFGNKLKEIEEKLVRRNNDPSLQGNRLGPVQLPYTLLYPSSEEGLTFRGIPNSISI
The experiment in a line: In vitro inhibition of soybean lipoxygenase (UV absorbance-based enzyme assay). Format: biochemical. To be noted: soybean LOX, sodium linoleate substrate, pH 9. How it is done:
The experimental conditions followed our previously reported protocol. Sodium linoleate was used as a substrate (0.1 mM) with 0.2 mL of the saline solution of SLOX (1/9 × 10^−4 w/v) in the Tris buffer pH 9.
On to `Cn1c(=O)c2ncn(C/C=[N+](/C)[O-])c2n(C)c1=O` [9g], for which the IC50 came out at 33 µM.

`C/[N+]([O-])=C/Cn1cc(F)c(=O)[nH]c1=O` [9c] showed an IC50 of 28 µM.

A further series concerns SH-SY5Y human neuroblastoma cells. The series can be described thus: Anti-necrotic effect: LDH release after OGD (4 h) and 24 h OGR (IR). Format: cell-based. To be noted: Homo sapiens, OGD 4 h + 24 h OGR (IR), compounds 0.1 μM to 1 mM, read-out: LDH Release Inhibition IC50 ±SEM. How it is done:
as §1
Anti-necrotic cell activity was evaluated by culturing SHSY5Y cells in 48-well dishes, in a density of 2 × 10^5 cells/well and treating them as controls or under the OGD-R24h procedure, adding the testing compounds at 0.01–1000 µM (see point 4.2.2.). Media of every well were collected in Eppendorf tubes properly labelled and stored at −20 °C until measurement (samples would be needed to measure extracellular NADH). Afterwards, each well was recharged with a 0.1 M Phosphate Buffer with 0.5% Triton X-100, pH 7.5, in order to scratch the cells from the bottom of the well. After a 13.000 rpm centrifugation, the soluble fractions are collected and labelled (samples would be essential to measure intracellular NADH). Finally, LDH activity was quantified as the degree of absorbance declined at 340, indicating the oxidation of NADH to NAD+ as described. Results are expressed as the LDH activity of the extracellular medium referred to the total LDH activity after cell lysis.
In general terms: Release of lactate dehydrogenase indicates damage to the cell membrane.
`Cn1c(=O)c2ncn(C/C=[N+](/C)[O-])c2n(C)c1=O` [9g]: the IC50 stood at 2.66 ± 1.11 µM.

In the case of `C/[N+]([O-])=C/Cn1ccc(=O)n(C/C=[N+](/C)[O-])c1=O` [9h], the IC50 came out at 17.6 ± 3.33 µM.

For `C/[N+]([O-])=C/Cn1cc(F)c(=O)[nH]c1=O` [9c], the IC50 was ~1 µM.

The same series, now with this note: Homo sapiens, OGD 4 h + 24 h OGR (IR), read-out: Maximal Inhibition Mean±SEM (LDH release).
As to `C/[N+]([O-])=C/Cn1ccc(=O)n(C/C=[N+](/C)[O-])c1=O` [9h], the Emax was found to be 126 ± 4.27%.

For `C/[N+]([O-])=C/Cn1cc(F)c(=O)[nH]c1=O` [9c], the Emax was determined as 148 ± 8.8%.

The melting point is the temperature, or range, at which the solid turns liquid. What is called EC50 is the concentration at which the effect is half-maximal. For orientation: IC50 means the concentration needed to halve the response being measured.
